# Laboratory results: US20200370022A1, “MALIGNANT HEMATOPOIETIC CELL MICROCOMPARTMENT AND METHOD FOR PREPARING SUCH A MICROCOMPARTMENT” (UNIVERSITE DE BORDEAUX, priority 2017, published 2020)
# Test system: DLBCL SUDHL4 cells
# Assay: CellTiter-Glo 3D cell viability (intracellular ATP) after 48 h drug treatment, 2D suspension vs 3D microcompartments
# Assay type: cell-based
# Settings: Homo sapiens, SU-DHL-4, 48 h
# Description: FIG. 11: Comparison of the cytotoxic effects of doxorubicin and of etoposide on DLBCL SUDHL4 cells grown in 2D (suspension) or in 3D ± ECM ± Resto. Cells or spheroids at D7 post-encapsulation are treated for 48 h with drugs. At the end of the treatment, cell viability is measured using the CellTiter-Glo® 3D Cell Viability Assay Kit (Promega).
# As shown above, drug diffusion is altered in the 3D structures according to the invention. The purpose of the present experiment is to verify whether this alteration is correlated with chemoresistance. For this purpose, the efficacy of two conventional chemotherapies (doxorubicin and etoposide) was tested in parallel on cells grown in suspension (2D) and on cell clusters from cellular microcompartments according to the invention, containing lymphomatous cells alone or in the presence of ECM, with or without Resto stromal cells, treated with increasing concentrations of these chemotherapy molecules.
# After 48 h of incubation, cell survival was assessed by measuring intracellular ATP using the CellTiter-Glo® 3D Cell Viability Assay Kit (Promega).
# [1] = 3D (lymphomatous cells alone), SUDHL4, D7 post-encapsulation, 48 h
# [2] = 3D + ECM + Resto, SUDHL4, D7 post-encapsulation, 48 h
# [3] = 3D + ECM, SUDHL4, D7 post-encapsulation, 48 h
"IC50 (2D (suspension), SUDHL4, 48 h)",IC50 [1],IC50 [2],IC50 [3],SMILES
0.09 µg/mL,0.4 µg/mL,0.4 µg/mL,0.4 µg/mL,"COc1cccc2c1C(=O)c1c(O)c3c(c(O)c1C2=O)C[C@@](O)(C(=O)CO)C[C@@H]3O[C@H]1C[C@H](N)[C@H](O)[C@H](C)O1 [Doxorubicin, doxorubicin]"
3.2 µg/mL,4.4 µg/mL,7 µg/mL,9.3 µg/mL,"COc1cc([C@@H]2c3cc4c(cc3[C@@H](O[C@@H]3O[C@@H]5CO[C@@H](C)O[C@H]5[C@H](O)[C@H]3O)[C@H]3COC(=O)[C@H]23)OCO4)cc(OC)c1O [Etoposide, etoposide]"
